Measurements: patent publication US7576222B2, “Alkynyl-containing tryptophan derivative inhibitors of TACE/matrix metalloproteinase” (priority 2004, dated 2009)

Each molecule was assayed against T1, catalytic domain of the recombinant TACE protein (Homo sapiens, UniProt P78536) (assay: TACE FRET assay using TACE cat). Settings: not given.
T1 construct: The catalytic domain of the recombinant TACE protein was expressed and purified; made in house
Format: biochemical
Summary of the method: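 Enzyme (1 ug/ml) pretreated with inhibitor for 10 min at room temperature in 50 mM Tris-HCl pH 7.4, 25 mM NaCl, 4% glycerol, 0.005% Brij 35, then started with FRET peptide Abz-[sequence]-Dpa (2 mM stock). Initial rate taken from fluorescence slope; IC50 fitted with floated Hill slope and background.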

T1 sequence (P78536 223-474 limits assumed): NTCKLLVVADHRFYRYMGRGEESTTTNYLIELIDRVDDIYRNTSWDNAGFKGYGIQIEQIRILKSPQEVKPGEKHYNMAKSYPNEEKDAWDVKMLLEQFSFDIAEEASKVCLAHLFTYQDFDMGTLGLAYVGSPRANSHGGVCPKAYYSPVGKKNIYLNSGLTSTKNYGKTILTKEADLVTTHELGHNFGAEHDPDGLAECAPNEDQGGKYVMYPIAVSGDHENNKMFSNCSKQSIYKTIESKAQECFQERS

Row | SMILES | IC50 [nM]
1 | CC#CCOc1ccc(S(=O)(=O)N[C@@H](Cc2cn(CC3CCC3)c3ccc(OC)cc23)C(=O)O)cc1 [Example 69, N-{[4-(but-2-ynyloxy)phenyl]sulfonyl}-1-(cyclobutylmethyl)-5-methoxytryptophan] | 1190
2 | CC#CCOc1ccc(S(=O)(=O)N[C@H](Cc2cn(CC3CCCCC3)c3ccccc23)C(=O)O)cc1 [Example 23, N-{[4-(but-2-ynyloxy)phenyl]sulfonyl}-1-(cyclohexylmethyl)-D-tryptophan] | 1710
3 | CC#CCOc1ccc(S(=O)(=O)N[C@@H](Cc2cn(CC3CCCCC3)c3ccc(OC)cc23)C(=O)O)cc1 [Example 70, N-{[4-(but-2-ynyloxy)phenyl]sulfonyl}-1-(cyclohexylmethyl)-5-methoxytryptophan] | 1870

Same assay, conditions: TACE FRET assay, catalytic domain of recombinant TACE; read-out: TACE IC50

Row | SMILES | IC50 [nM]
4 | C=CCOc1ccc(Cn2cc(C[C@@H](NS(=O)(=O)c3ccc(OCC#CC)cc3)C(=O)O)c3ccccc32)cc1 [Example 216, 1-[4-(allyloxy)benzyl]-N-{[4-(but-2-ynyloxy)phenyl]sulfonyl}-D-tryptophan] | 540
5 | CC#CCOc1ccc(S(=O)(=O)N[C@H](Cc2cn(Cc3cc(OC)cc(OC)c3)c3ccccc23)C(=O)O)cc1 [Example 36, N-{[4-(but-2-ynyloxy)phenyl]sulfonyl}-1-(3,5-dimethoxybenzyl)-D-tryptophan] | 980

Same assay, conditions: read-out: TACE Inhibition (%)

Row | SMILES | inhibition at 1 µM [%]
6 | CC#CCOc1ccc(S(=O)(=O)N[C@@H](Cc2c(C)n(Cc3ccc(C(F)(F)F)cc3)c3ccccc23)C(=O)O)cc1 [Example 150, N-{[4-(but-2-ynyloxy)phenyl]sulfonyl}-2-methyl-1-[4-(trifluoromethyl)benzyl]tryptophan] | 35.6
7 | CC#CCOc1ccc(S(=O)(=O)N[C@@H](Cc2cn(Cc3ccc(C)cc3)c3ccc(C(=O)O)cc23)C(=O)O)cc1 [Example 106, N-{[4-(but-2-ynyloxy)phenyl]sulfonyl}-5-carboxy-1-(4-methylbenzyl)tryptophan] | 5.53
8 | CC#CCOc1ccc(S(=O)(=O)N[C@@H](Cc2cn(Cc3ccccc3)c3ccc(OC)cc23)C(=O)O)cc1 [Example 48, 1-benzyl-N-{[4-(but-2-ynyloxy)phenyl]sulfonyl}-5-methoxytryptophan] | 37.2
9 | CC#CCOc1ccc(S(=O)(=O)N[C@@H](Cc2cn(Cc3ccccc3OC)c3ccc(OC)cc23)C(=O)O)cc1 [Example 51, N-{[4-(but-2-ynyloxy)phenyl]sulfonyl}-5-methoxy-1-(2-methoxybenzyl)tryptophan] | 38.3
10 | CC#CCOc1ccc(S(=O)(=O)N[C@@H](Cc2cn(CC(C)C)c3ccc(C(=O)O)cc23)C(=O)O)cc1 [Example 129, N-{[4-(but-2-ynyloxy)phenyl]sulfonyl}-5-carboxy-1-isobutyltryptophan] | -4.96
11 | CC#CCOc1ccc(S(=O)(=O)N[C@@H](Cc2cn(Cc3ccccc3C)c3ccc(OC)cc23)C(=O)O)cc1 [Example 49, N-{[4-(but-2-ynyloxy)phenyl]sulfonyl}-5-methoxy-1-(2-methylbenzyl)tryptophan] | 38.9
12 | CC#CCOc1ccc(S(=O)(=O)N[C@@H](Cc2c(C)n(Cc3ccccc3C)c3ccccc23)C(=O)O)cc1 [Example 145, N-{[4-(but-2-ynyloxy)phenyl]sulfonyl}-2-methyl-1-(2-methylbenzyl)tryptophan] | 49.5
13 | CC#CCOc1ccc(S(=O)(=O)N[C@@H](Cc2cn(Cc3cc(F)cc(F)c3)c3ccc(C(=O)O)cc23)C(=O)O)cc1 [Example 118, N-{[4-(but-2-ynyloxy)phenyl]sulfonyl}-5-carboxy-1-(3,5-difluorobenzyl)tryptophan] | 5.98
14 | CC#CCOc1ccc(S(=O)(=O)N[C@@H](Cc2c(C)n(Cc3ccc(C(C)C)cc3)c3ccc(OC)cc23)C(=O)O)cc1 [Example 202, N-{[4-(but-2-ynyloxy)phenyl]sulfonyl}-1-(4-isopropylbenzyl)-5-methoxy-2-methyltryptophan] | 67
15 | CC#CCOc1ccc(S(=O)(=O)N[C@@H](Cc2c(C)n(Cc3cccc(OC)c3)c3ccccc23)C(=O)O)cc1 [Example 147, N-{[4-(but-2-ynyloxy)phenyl]sulfonyl}-1-(3-methoxybenzyl)-2-methyltryptophan] | 35.6
16 | CC#CCOc1ccc(S(=O)(=O)N[C@@H](Cc2c(C)n(Cc3ccc(C(=O)O)cc3)c3ccc(OC)cc23)C(=O)O)cc1 [Example 207, N-{[4-(but-2-ynyloxy)phenyl]sulfonyl}-1-(4-carboxybenzyl)-5-methoxy-2-methyltryptophan] | 62.1
17 | CC#CCOc1ccc(S(=O)(=O)N[C@@H](Cc2c(C)n(Cc3ccc(OC)cc3)c3ccccc23)C(=O)O)cc1 [Example 148, N-{[4-(but-2-ynyloxy)phenyl]sulfonyl}-1-(4-methoxybenzyl)-2-methyltryptophan] | 44.1
18 | CC#CCOc1ccc(S(=O)(=O)N[C@@H](Cc2cn(Cc3ccccc3)c3ccc(Cl)cc23)C(=O)O)cc1 [Example 71, 1-benzyl-N-{[4-(but-2-ynyloxy)phenyl]sulfonyl}-5-chlorotryptophan] | -1.19
19 | CC#CCOc1ccc(S(=O)(=O)N[C@@H](Cc2cn(Cc3ccccc3)c3ccc(C#N)cc23)C(=O)O)cc1 [Example 135, 1-benzyl-N-{[4-(but-2-ynyloxy)phenyl]sulfonyl}-5-cyanotryptophan] | 29.6
20 | CC#CCOc1ccc(S(=O)(=O)N[C@@H](Cc2cn(CC3CCCCC3)c3ccc(Cl)cc23)C(=O)O)cc1 [Example 87, N-{[4-(but-2-ynyloxy)phenyl]sulfonyl}-5-chloro-1-(cyclohexylmethyl)tryptophan] | 37.4
21 | CC#CCOc1ccc(S(=O)(=O)N[C@@H](Cc2c(C)n(Cc3ccccc3C#N)c3ccc(OC)cc23)C(=O)O)cc1 [Example 203, N-{[4-(but-2-ynyloxy)phenyl]sulfonyl}-1-(2-cyanobenzyl)-5-methoxy-2-methyltryptophan] | 56.8
22 | CC#CCOc1ccc(S(=O)(=O)N[C@@H](Cc2cn(Cc3cccc(C(F)(F)F)c3)c3ccc(C(=O)O)cc23)C(=O)O)cc1 [Example 112, N-{[4-(but-2-ynyloxy)phenyl]sulfonyl}-5-carboxy-1-[3-(trifluoromethyl)benzyl]tryptophan] | 5.51
23 | CC#CCOc1ccc(S(=O)(=O)N[C@@H](Cc2cn(Cc3ccc(F)cc3)c3ccc(C#N)cc23)C(=O)O)cc1 [Example 141, N-{[4-(but-2-ynyloxy)phenyl]sulfonyl}-5-cyano-1-(4-fluorobenzyl)tryptophan] | 29.6
24 | CC#CCOc1ccc(S(=O)(=O)N[C@@H](Cc2cn(CC3CCCCC3)c3ccc(C(=O)O)cc23)C(=O)O)cc1 [Example 132, N-{[4-(but-2-ynyloxy)phenyl]sulfonyl}-5-carboxy-1-(cyclohexylmethyl)tryptophan] | 9.55
25 | CC#CCOc1ccc(S(=O)(=O)N[C@@H](Cc2cn(Cc3ccccc3C#N)c3ccc(C(=O)O)cc23)C(=O)O)cc1 [Example 121, N-{[4-(but-2-ynyloxy)phenyl]sulfonyl}-5-carboxy-1-(2-cyanobenzyl)tryptophan] | 14.8
26 | CC#CCOc1ccc(S(=O)(=O)N[C@@H](Cc2cn(Cc3ccccc3C(F)(F)F)c3ccc(OC)cc23)C(=O)O)cc1 [Example 55, N-{[4-(but-2-ynyloxy)phenyl]sulfonyl}-5-methoxy-1-[2-(trifluoromethyl)benzyl]tryptophan] | 31.3
27 | CC#CCOc1ccc(S(=O)(=O)N[C@@H](Cc2cn(Cc3ccc(Cl)cc3)c3ccc(C(=O)O)cc23)C(=O)O)cc1 [Example 119, N-{[4-(but-2-ynyloxy)phenyl]sulfonyl}-5-carboxy-1-(4-chlorobenzyl)tryptophan] | 11.7
28 | CC#CCOc1ccc(S(=O)(=O)N[C@@H](Cc2cn(Cc3ccc(C)cc3)c3ccc(C#N)cc23)C(=O)O)cc1 [Example 136, N-{[4-(but-2-ynyloxy)phenyl]sulfonyl}-5-cyano-1-(4-methylbenzyl)tryptophan] | 57.8
29 | CC#CCOc1ccc(S(=O)(=O)N[C@@H](Cc2c(C)n(Cc3ccccc3)c3ccc(Cl)cc23)C(=O)O)cc1 [Example 88, 1-benzyl-N-{[4-(but-2-ynyloxy)phenyl]sulfonyl}-5-chloro-2-methyltryptophan] | 62.8
30 | CC#CCOc1ccc(S(=O)(=O)N[C@@H](Cc2cn(Cc3ccc(OC)cc3)c3ccc(C#N)cc23)C(=O)O)cc1 [Example 139, N-{[4-(but-2-ynyloxy)phenyl]sulfonyl}-5-cyano-1-(4-methoxybenzyl)tryptophan] | 25.1
31 | CC#CCOc1ccc(S(=O)(=O)N[C@@H](Cc2c(C)n(Cc3cccc(OC(F)(F)F)c3)c3ccc(OC)cc23)C(=O)O)cc1 [Example 194, N-{[4-(but-2-ynyloxy)phenyl]sulfonyl}-5-methoxy-2-methyl-1-[3-(trifluoromethoxy)benzyl]tryptophan] | 80.8
